Where two headings read alike, the source gives them in different places. One block for each molecule: values may come before it.
How the values were obtained:
[1] = system: cholesterol esterase (EC3.1.1.13); assay: Microtiter chromogenic detection of cholesterol esterase (Example 7); assay type: biochemical; conditions: for Substrate preference: BCI-substrates tested; for Reaction (colour, time to detection): cholesterol esterase (0.05 U)
[2] = system: esterase (EC3.1.1.1); assay: Microtiter chromogenic detection of esterase, PBS pH 7.4 (Example 1); assay type: biochemical; conditions: 1 unit esterase, visual
Experimental: (§1) The BCI substrate without MTT is pale blue. PMS and MTT alone are yellow. PMS and BCI is yellow+blue which is green.
Four test samples were prepared.

[3] = system: esterase activity in elastase preparation; assay: Esterase activity and/or contamination in commercial elastase preparation (Example 5); assay type: biochemical
Experimental: (§2) Elastase was serially diluted twofold to signal extinction with elastase substrate. The last dilution yielding robust signal was incubated with the competitive inhibitor elastatinal for 10 minutes—with subsequent addition of esterase substrates.

[4] = system: esterase (EC 3.1.1.1); assay: Microtitre chromogenic detection of esterase, de-ionized H2O (Examples 2 and 3); assay type: biochemical; conditions: for Substrate preference / Speed of chromogenic reactions relative to other BCI substrates: esterase; for Substrate preference: BCI-substrates tested; for Reaction (colour, time to detection): 1 unit esterase, de-ionized H2O; for Speed of chromogenic reactions relative to other BCI substrates: similar concentration of substrates and enzymes
Experimental: 10 μl of esterase (1 unit) was added to substrate samples B, B′, C, C′, D, D′, and E, E′.
Five test samples were prepared.

[5] = system: neuraminidase (EC 3.2.1.18); assay: Microtitre chromogenic detection of neuraminidase (Example 11); assay type: biochemical; conditions: neuraminidase 0.1 units
Experimental: (§3) These colors result from the interaction of the enzyme and substrate with the transfer of an electron to a tetrazolium salt. The reactive product, formazan, is detected as dark blue, black. The BCI substrate without MTT is pale blue. PMS and MTT alone are yellow. PMS and BCI is yellow+blue which is green.
10 μl of H2O was added to substrate sample A as the substrate control. 10 μl of neuraminidase (0.1 units) was added to substrate samples B, C, D and E.

[6] = target: chloramphenicol acetyltransferase (EC 2.3.1.28) (Escherichia coli, UniProt P62577); assay: Microtitre chromogenic detection of chloramphenicol acetyltransferase (Example 10); assay type: biochemical; conditions: Chloramphenicol acetyl transferase 5U/10 μl
Excerpt: In a preferred assay of the invention, the enzyme chloramphenicol acetyl transferase (CAT enzyme) reacts with chloramphenicol and […] in the presence of the indicator dimethylthiazol tetrazolium (MTT) and phenazine methosulfate (PMS). The MTT serves as a hydrogen acceptor in the reaction. The reaction can be written as:
CAT+chloramphenicol+acyl coA→CAT-chloramphenicol-CoA CAT-chloramphenicol-CoA+PMS→CAT+PMS.H2+acyl-chloramphenicol+HS-CoA PMS-H2+MTT→formazan+PMS.
as §1
Chloramphenicol acetyl transferase (5U/10 μl) was added to each substrate combination.

[7] = system: B-glucuronidase (EC 3.2.1.31); conditions: PBS pH 5.0
Experimental: as §3
Four test samples were prepared. The samples A, B, C, D contained the following reactants:
10 μl of H2O was added to substrate sample A to serve as a control. 10 μl of β-glucuronidase (10 units) was added to substrate samples B, C, and D.

[8] = target: T1, elastase (EC 3.4.21.36) (Sus scrofa, UniProt P00772); assay: Elastase with elastase substrate, with or without elastatinal (Example 5); assay type: biochemical
T1 construct: purchased Sigma lot # 17H8005
Experimental: as §2

[9] = system: cholesterol oxidase (EC1.1.3.6); assay: Microtitre chromogenic detection of cholesterol oxidase (Example 8); assay type: biochemical; conditions: Cholesterol Oxidase 25 U/ml
Excerpt: as §1

[10] = system: Beta-N-acetylglucosaminidase (EC 3.2.1.30); assay: Microtitre chromogenic detection of Beta-N-acetylglucosaminidase (Example 12); assay type: biochemical; conditions: Beta-N-acetylglucoaminidase 0.125 units
Excerpt: as §1

[11] = system: beta-glucosidase (EC 3.2.1.21); conditions: 0.5 units glucosidase
Experimental: The experimental results for Experiments 1-12 are described by the color change of the experimental solution. These colors result from the interaction of the enzyme and substrate with the transfer of an electron to a tetrazolium salt. The reactive product, formazan, is detected as dark blue, black. […] The reaction detected required the enzyme, substrate and tetrazolium salt.
Five test samples were prepared. The samples A, B, C, D, E contained the following reactants:
10 μl of H2O was added to substrate sample A to serve as a control. 10 μl of β-glucosidase (0.5 units) was added to substrate samples B, C, D and E.

[12] = substrate alone (no MTT, no PMS)
[13] = substrate 12.5 mg/ml + H2O, PMS (no MTT)
[14] = substrate 12.5 mg/ml + MTT, H2O (no PMS)
[15] = substrate 12.5 mg/ml + MTT, PMS
[16] = substrate 5 mg/ml + H2O, PMS (no MTT)
[17] = substrate 5 mg/ml + MTT, H2O (no PMS)
[18] = substrate 5 mg/ml alone (no MTT, no PMS)

Chain of chloramphenicol acetyltransferase (EC 2.3.1.28) (P62577 whole entry, looked up): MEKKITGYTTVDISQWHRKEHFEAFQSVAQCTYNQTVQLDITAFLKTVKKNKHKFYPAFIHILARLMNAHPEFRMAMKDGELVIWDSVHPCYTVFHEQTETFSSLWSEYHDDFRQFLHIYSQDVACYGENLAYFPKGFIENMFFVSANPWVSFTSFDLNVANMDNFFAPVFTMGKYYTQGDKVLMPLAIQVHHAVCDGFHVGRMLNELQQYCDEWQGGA
T1 sequence (P00772 27-266): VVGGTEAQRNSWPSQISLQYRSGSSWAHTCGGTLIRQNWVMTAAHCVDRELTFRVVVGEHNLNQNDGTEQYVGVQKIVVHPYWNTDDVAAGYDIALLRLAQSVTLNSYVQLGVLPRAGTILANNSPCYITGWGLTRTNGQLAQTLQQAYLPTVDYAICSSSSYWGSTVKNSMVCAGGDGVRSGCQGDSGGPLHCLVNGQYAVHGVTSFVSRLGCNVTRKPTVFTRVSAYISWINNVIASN

Reaction (colour, time to detection) ([1]; substrate + H2O, PMS (no MTT)): yellow-blue (<30 see) | Reaction (colour, time to detection) ([1]; substrate + MTT, H2O (no PMS)): dark blue (<10 sec) | Reaction (colour, time to detection) ([1]; substrate + MTT, PMS): dark blue (instant detection) | Reaction (colour, time to detection) [1, 12]: pale blue (>10 minutes) | Reaction (colour, time to detection) [2, 13]: yellow-blue - slight change | Reaction (colour, time to detection) [2, 14]: dark blue < 10 seconds) | Reaction (colour, time to detection) [2, 15]: dark blue (instantaneous) | Reaction with elastase preparation, no inhibitor ([3]; Elastase + H2O, MTT, PMS, BCI-acetate): dark blue (<5 minutes) | Reaction (colour, time to detection) [4, 16]: yellow-blue (<30 sec) | Reaction (colour, time to detection) [4, 17]: dark blue (<10 sec) | Reaction (colour, time to detection) ([4]; substrate 5 mg/ml + MTT, PMS): dark blue (instant detection) | Reaction (colour, time to detection) [4, 18]: pale blue (>10 minutes)
Molecule: CC(=O)Oc1c[nH]c2ccc(Br)c(Cl)c12 [BCI-acetate, 5-Bromo-4-chloro-3-indolyl acetate]
Substrate preference ([1]; cholesterol esterase): BCI-acetate>BCI-butyrate> BCI-1,3 diacetate | Substrate preference [4]: BCI-acetate>BCI-butyrate> BCI-1,3 diacetate

Molecule: CC(=O)N[C@H]1[C@H]([C@H](O)[C@H](O)CO)O[C@@](Oc2c[nH]c3ccc(Br)c(Cl)c23)(C(=O)O)C[C@@H]1O [BCI-acetylneuraminic acid, 5-bromo-4-chloro-3-indolyl acetyl neuraminic acid]
Reaction (colour, time to detection) ([5]; substrate + H2O, PMS (no MTT)): green | Reaction (colour, time to detection) ([5]; substrate + MTT, H2O (no PMS)): light blue formazan reaction | Reaction (colour, time to detection) ([5]; substrate + MTT, PMS): dark blue (>5 minutes) | Reaction (colour, time to detection) ([5]; substrate in H2O (no MTT, no PMS)): pale blue (<2 minutes)

Molecule: 5-Bromo-4-chloro-3-indolyl 1,3 diacetate [BCI-1,3 diacetate]
Substrate preference ([1]; cholesterol esterase): BCI-acetate>BCI-butyrate> BCI-1,3 diacetate | Substrate preference [4]: BCI-acetate>BCI-butyrate> BCI-1,3 diacetate | Speed of chromogenic reactions relative to other BCI substrates [4]: much slower than the corresponding BCI-acetate and slower than the BCI-butyrate reactions | Reaction (colour, time to detection) [4, 16]: yellow-blue | Reaction (colour, time to detection) [4, 17]: dark blue (>1 hour) | Reaction (colour, time to detection) ([4]; substrate 5 mg/ml + MTT, PMS): dark blue (>40 minutes) | Reaction (colour, time to detection) [4, 18]: pale faint blue

Molecule: O=C(N[C@H](CO)[C@H](O)c1ccc([N+](=O)[O-])cc1)C(Cl)Cl [Chloramphenicol]
Reaction (colour, time to detection) ([6]; Acetyl CoA + H2O, PMS (no MTT)): orange - red (<2 minutes) | Reaction (colour, time to detection) ([6]; Acetyl CoA + MTT, H2O (no PMS)): orange detection (>5 minutes) | Reaction (colour, time to detection) ([6]; Acetyl CoA + MTT, PMS): yellow

Molecule: 5-Bromo-4-chloro-3-indolyl-B-D-glucuronide [BCI glucuronide]
Reaction (colour, time to detection) ([7]; substrate 10 mg/ml + MTT, H2O (no PMS), 10 units glucuronidase): dark blue (<5 minutes) | Reaction (colour, time to detection) ([7]; substrate + H2O (no MTT, no PMS), glucuronidase): pale blue (after 5 minutes) | Reaction (colour, time to detection) ([7]; substrate + H2O, PMS (no MTT), 10 units glucuronidase): yellow-blue - slight change | Reaction (colour, time to detection) ([7]; substrate + MTT, PMS, 10 units glucuronidase): dark blue (<5 minutes)

Molecule: CC(C)C[C@H](NC(=O)N[C@H](C(=O)N[C@@H](CCC(N)=O)C(=O)N[C@@H](C)C=O)[C@@H]1CCNC(=N)N1)C(=O)O [Elastatinal]
Reaction with elastase substrate after incubation with inhibitor ([8]; Elastase + Inhibitor, incubated 10 minutes, elastase substrate N-succinyl-ALA-ALA-ALA p nitroanilide): clear (no color >10 min.) | Reaction with MTT, PMS, BCI-acetate after incubation with inhibitor ([3]; Elastase + Inhibitor, incubated 10 minutes): dark blue (<5 minutes)

Reaction (colour, time to detection) ([9]; Cholesterol Std 50 mg/dl + H2O, PMS (no MTT)): yellow, no color change | Reaction (colour, time to detection) ([9]; Cholesterol Std 50 mg/dl + MTT, H2O (no PMS)): yellow, no color change | Reaction (colour, time to detection) ([9]; Cholesterol Std 50 mg/dl + MTT, PMS): dark blue(<1 minutes) | Reaction (colour, time to detection) ([9]; Cholesterol Std 50 mg/dl in H2O (no MTT, no PMS)): clear, no color change
Molecule: CC(C)CCC[C@@H](C)[C@H]1CC[C@H]2[C@@H]3CC=C4C[C@@H](O)CC[C@]4(C)[C@H]3CC[C@]12C [cholesterol]

Molecule: C[C@H](NC(=O)CCC(=O)O)C(=O)N[C@@H](C)C(=O)N[C@@H](C)C(=O)Nc1ccc([N+](=O)[O-])cc1 [Elastase substrate, N-succinyl-ALA-ALA-ALA p nitroanilide]
Reaction with elastase, no inhibitor ([8]; Elastase + H2O, elastase substrate): yellow

Reaction (colour, time to detection) [10, 13]: green | Reaction (colour, time to detection) [10, 14]: light blue formazan reaction | Reaction (colour, time to detection) [10, 15]: dark blue(<2 minutes) | Reaction (colour, time to detection) ([10]; substrate 12.5 mg/ml alone (no MTT, no PMS)): light blue (>5 minutes)
Molecule: CC(=O)N[C@H]1[C@H](Oc2c[nH]c3ccc(Br)c(Cl)c23)O[C@H](CO)[C@@H](O)[C@@H]1O [BCI-acetylglucosaminide]

Molecule: 5-Bromo-4-chloro-3-indolyl-B-D-glucoside [BCI-glucoside]
Reaction (colour, time to detection) [11, 16]: yellow-blue - slight change | Reaction (colour, time to detection) [11, 17]: dark blue (<5 minutes) | Reaction (colour, time to detection) ([11]; substrate 5 mg/ml + MTT, PMS): dark blue (<5 minutes) | Reaction (colour, time to detection) [11, 18]: pale blue (>10 minutes)

Reaction (colour, time to detection) ([1]; substrate + H2O, PMS (no MTT)): yellow-blue (<30 minutes) | Reaction (colour, time to detection) ([1]; substrate + MTT, H2O (no PMS)): dark blue (<30 minutes) | Reaction (colour, time to detection) ([1]; substrate + MTT, PMS): dark blue (<20 minutes) | Reaction (colour, time to detection) [1, 12]: pale blue (>1 hour) | Reaction (colour, time to detection) [4, 16]: yellow-blue (<30 minutes) | Reaction (colour, time to detection) [4, 17]: dark blue (<30 minutes) | Reaction (colour, time to detection) ([4]; substrate 5 mg/ml + MTT, PMS): dark blue (<20 minutes) | Reaction (colour, time to detection) [4, 18]: pale blue (>1 hour)
Molecule: CCCC(=O)Oc1c[nH]c2ccc(Br)c(Cl)c12 [BCI-butyrate, 5-Bromo-4-chloro-3-indolyl-butyrate]
Substrate preference ([1]; cholesterol esterase): BCI-acetate>BCI-butyrate> BCI-1,3 diacetate | Speed of chromogenic reactions relative to other BCI substrates ([1]; cholesterol esterase, similar concentration of substrates and enzymes): much slower than the corresponding BCI-acetate reactions | Substrate preference [4]: BCI-acetate>BCI-butyrate> BCI-1,3 diacetate | Speed of chromogenic reactions relative to other BCI substrates [4]: much slower than the corresponding BCI-acetate reactions
